Measurements from the supplement of paper PMC10307832.

Assays:
Experiment in all cases: relative viability (nuclei count vs DMSO), 5 days (fraction); higher = more cells survive
GW-2580 + Trametinib = compound: COC1=CC=C(C=C1)COC2=C(C=C(C=C2)CC3=CN=C(N=C3N)N)OC [GW-2580] + CC(=O)Nc1cccc(-n2c(=O)n(C3CC3)c(=O)c3c(Nc4ccc(I)cc4F)n(C)c(=O)c(C)c32)c1 [Trametinib] (partner 0.02 µM)
Outline: (§1)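 Each reported value is a median over duplicate plates. It expresses relative viability: treated-well nuclei count divided by vehicle-well nuclei count. Lung cancer cell lines in 1536-well plates were dosed by pin tool a day after seeding, alone with one drug or with a fixed anchor-drug dose plus five library-drug doses (not always all listed) in √10 steps, and nuclei were counted after 5 days.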

GW-2580 + Pictilisib = compound: COC1=CC=C(C=C1)COC2=C(C=C(C=C2)CC3=CN=C(N=C3N)N)OC [GW-2580] + CS(=O)(=O)N1CCN(Cc2cc3nc(-c4cccc5[nH]ncc45)nc(N4CCOCC4)c3s2)CC1 [Pictilisib] (partner 1 µM)
Outline: as §1

GW-2580 + Linsitinib = compound: COC1=CC=C(C=C1)COC2=C(C=C(C=C2)CC3=CN=C(N=C3N)N)OC [GW-2580] + C[C@]1(O)C[C@@H](c2nc(-c3ccc4ccc(-c5ccccc5)nc4c3)c3c(N)nccn32)C1 [Linsitinib] (partner 1 µM)
Outline: as §1

GW-2580 + AZD7762 = compound: COC1=CC=C(C=C1)COC2=C(C=C(C=C2)CC3=CN=C(N=C3N)N)OC [GW-2580] + NC(=O)Nc1cc(-c2cccc(F)c2)sc1C(=O)N[C@H]1CCCNC1 [AZD7762] (partner 0.2 µM)
Outline: as §1

Fedratinib + Phenformin = compound: Cc1cnc(Nc2ccc(OCCN3CCCC3)cc2)nc1Nc1cccc(S(=O)(=O)NC(C)(C)C)c1 [Fedratinib] + N=C(N)NC(=N)NCCc1ccccc1 [Phenformin] (partner 250 µM)
Outline: as §1

Row | Cell Line | relative viability (GW-2580 + Trametinib; first compound 0.08 µM) | relative viability (GW-2580 + Trametinib; first compound 0.8 µM) | relative viability (GW-2580 + Trametinib; first compound 2.53 µM) | relative viability (GW-2580 + Trametinib; first compound 8 µM) | relative viability (GW-2580 + Pictilisib; first compound 0.08 µM) | relative viability (GW-2580 + Pictilisib; first compound 0.8 µM) | relative viability (GW-2580 + Pictilisib; first compound 2.53 µM) | relative viability (GW-2580 + Pictilisib; first compound 8 µM) | relative viability (GW-2580 + Linsitinib; first compound 0.08 µM) | relative viability (GW-2580 + Linsitinib; first compound 0.8 µM) | relative viability (GW-2580 + Linsitinib; first compound 2.53 µM) | relative viability (GW-2580 + Linsitinib; first compound 8 µM) | relative viability (GW-2580 + AZD7762; first compound 0.08 µM) | relative viability (GW-2580 + AZD7762; first compound 0.8 µM) | relative viability (GW-2580 + AZD7762; first compound 2.53 µM) | relative viability (GW-2580 + AZD7762; first compound 8 µM) | relative viability (Fedratinib + Phenformin; first compound 0.3162 µM) | relative viability (Fedratinib + Phenformin; first compound 1 µM) | relative viability (Fedratinib + Phenformin; first compound 0.1 µM)
1 | NCI-H1792 | 0.49 | 0.502 | 0.388 | 0.337 | 0.279 | 0.272 | 0.171 | 0.223 | 0.684 | 0.569 | 0.263 | 0.592 | 0.681 | 0.712 | 0.63 | 0.697 | 0.77 | 0.338 | –
2 | LOU-NH91 | 0.796 | 0.857 | 0.738 | 0.827 | 0.527 | 0.549 | 0.502 | 0.535 | 0.956 | 0.972 | 0.877 | 1.02 | 0.862 | 0.677 | 0.743 | 0.794 | 0.899 | 0.733 | 0.689
3 | NCI-H2405 | 0.68 | 0.586 | 0.596 | 0.563 | 0.432 | 0.505 | 0.319 | 0.529 | 0.979 | 0.85 | 0.886 | 0.861 | 0.793 | 0.712 | 0.703 | 0.581 | 0.412 | 0.446 | 0.315
4 | LCLC-97TM1 | 0.189 | 0.196 | 0.192 | 0.196 | 0.197 | – | 0.159 | 0.181 | 0.207 | – | 0.164 | 0.177 | 0.2 | 0.285 | 0.281 | 0.212 | 0.425 | 0.37 | 0.477
5 | NCI-H596 | 0.806 | 0.979 | 0.689 | 0.795 | 0.4 | 0.407 | 0.343 | 0.392 | 1.22 | 1.08 | 1.07 | 1 | 1.1 | 1.18 | 1.19 | 1.14 | 0.895 | 0.859 | 0.691
6 | NCI-H727 | 0.417 | 0.382 | 0.364 | 0.383 | 0.355 | 0.622 | 0.349 | 0.372 | 0.241 | 0.298 | 0.226 | 0.284 | 0.461 | 0.732 | 0.576 | 0.432 | 0.477 | 0.352 | 0.76
7 | H3255 | 0.512 | 0.627 | 0.44 | 0.553 | 0.534 | 0.471 | 0.419 | 0.464 | 0.98 | 1.03 | 1.08 | 0.796 | 0.876 | 1.22 | 0.817 | 0.758 | 0.362 | 0.418 | 0.377
8 | NCI-H1437 | 0.524 | 0.571 | 0.448 | 0.415 | 0.465 | 0.514 | 0.378 | 0.387 | 1.08 | 1.3 | 0.942 | 0.728 | 1.11 | 1.09 | 1.04 | 0.995 | 0.346 | 0.349 | 0.318
